Measured values from patent US10030030B2, “Crystals of dispiropyrrolidine derivatives” (Daiichi Sankyo Company, Limited, priority 2012, dated 2018).

Key:
[1] = molecular target: T1, Mdm2/p53 binding (His-p53 and GST-Mdm2) (Homo sapiens, UniProt Q00987, L33E); assay: Mdm2/p53 binding assay (HTRF); details: His-p53 (aa 1-132) / GST-Mdm2 (aa 25-108, L33E), 6.25 nM each, 25° C., 1 hour
T1 construct: Mdm2 amino acids at positions 25 to 108
Method: A protein dilution containing 6.25 nM each of His-p53 (fusion protein of a p53 partial protein having p53 amino acids at positions 1 to 132, with a histidine protein) and GST-Mdm2 (fusion protein of a Mdm2 partial protein, having Mdm2 amino acids at positions 25 to 108 with leucine residue 33 substituted by glutamic acid, with glutathione transferase) proteins was prepared using a protein buffer solution (20 mM HEPES pH 7.4, 150 mM NaCl, 0.1% BSA). This protein dilution was added in an amount of 8 μL/well to a 384-well plate (384-well low volume NBC, Corning Inc., catalog No: 3676). […]
Time-resolved fluorescence at 620 and 665 nm was measured at an excitation wavelength of 320 nm using a plate reader (ARVOsx, PerkinElmer Co., Ltd. or PHERAstar, BMG LABTECH). Ratio (R) was calculated using the measured values (RFU 620 nm and RFU 665 nm) according to the following formula: R=(RFU 665 nm−BI−C×RFU 620 nm)/RFU 620 nm
BI: measured value at 665 nm of reaction solution (only each buffer solution) nonsupplemented with each protein, the compound, and the antibodies […]
A and D: each measured value at 665 nm and 620 nm of reaction solution supplemented with only Eu-labeled anti-GST antibody solution.
The R value calculated from the well supplemented with His-p53, GST-Mdm2, the test compound, and each antibody was defined as R (sample). […] T/C was calculated from the formula shown below. […]

[2] = system: human lung cancer-derived cell line NCI-H460 having wild-type p53; assay: Cell growth inhibition assay (MTT); assay type: cell-based; details: 72 h, NCI-H460 cells, 3 days culture, read-out: cell growth inhibiting effect GI50
Method: A cell growth inhibition assay was conducted using human lung cancer-derived cell line NCI-H460 having wild-type p53.
NCI-H460 cells were suspended in a medium (RPMI1640 medium containing 10% fetal bovine serum) and the suspension was inoculated in an amount of 500 cells/150 μL/well to a 96-well multiwell plate. A test compound was dissolved in DMSO and this solution was diluted with medium to prepare a sample solution (DMSO concentration: 1% or lower). On the next day of inoculation, medium nonsupplemented with the test compound or the sample solution was added in an amount of 50 μL/well. […]
A 5 mg/mL MTT (3-(4,5-dimethylthiazol-2-yl)-2,5-diphenyltetrazolium bromide, Sigma-Aldrich Co., M-2128) solution was prepared using a phosphate buffer solution (Dulbecco's Phosphate-buffered Saline). […] The absorbance of each well was measured under conditions of OD 540 nm and reference 660 nm using a plate reader (SpectraMax PLUS384, Molecular Devices, Calif., USA).
The OD value measured on the day of adding the sample solution was defined as S. The OD value measured three days after addition of the sample solution was defined as T. The OD value measured three days after addition of the DMSO dilution was defined as C. […]

T1 sequence (Q00987 25-108 L33E): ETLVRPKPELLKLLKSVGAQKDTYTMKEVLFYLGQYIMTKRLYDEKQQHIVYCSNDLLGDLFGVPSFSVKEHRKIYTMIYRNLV

IC50 [1]: ≤ 100 nM
GI50 [2]: < 100 nM
SMILES: CC1(C)CCC2(CC1)N[C@@H](C(=O)N[C@@H]1CC[C@@H](C(N)=O)OC1)[C@H](c1ccnc(Cl)c1F)[C@]21C(=O)Nc2cc(Cl)ccc21 [compound (1), (3′R,4′S,5′R)—N-[(3R,6S)-6-carbamoyltetrahydro-2H-pyran-3-yl]-6″-chloro-4′-(2-chloro-3-fluoropyridin-4-yl)-4,4-dimethyl-2″-oxo-1″,2″-dihydrodispiro[cyclohexane-1,2′-pyrrolidine-3′,3″-indole]-5′-carboxamide]
